{"source": "patent US20230141284A1", "about": "“CANCER THERAPEUTIC METHOD” (ONO PHARMACEUTICAL CO., LTD., priority 2020, published 2023)", "format_in_all_cases": "cell-based", "key": {"[1]": {"system": "IRF (Interferon Regulatory Factor) pathway", "experiment": "Effect on IRF (Interferon Regulatory Factor) pathway, Quanti-luc reporter cells", "details": "activation of the IRF pathway, luminescence, about 24 hours incubation", "method": "The cells mainly described at lines 12-20 of the right column on page 183 in Mol Immunol. 2017, Vol. 90, p. 182-189 were suspended in RPMI medium to prepare 2×10^6 cells/mL of cell suspension. 50 μL of the cell suspensions were dispensed into a 96-well plate, to which 50 μL of 6 to 20,000 nmol/L compound solutions were added. After adding the compound, the mixture thereof was incubated at 37° C. for about 24 hours. After incubation, 10 μL of cell suspensions were collected from each well, which were mixed with 50 μL of Quanti-luc (Invivogen). Then, the activation of the IRF pathway was measured by detecting luminescence using a microplate reader (Molecular Devices)."}, "[2]": {"system": "human acute myeloid leukemia cell lines (KG-1α, THP-1 and CMK)", "experiment": "Anti-tumor effects in combination with anti-neoplastic agents, human acute myeloid leukemia cell lines", "details": "combination with Compound B 10 to 1000 nmol/L, 48 hours, absorbance 450 nm", "method": "(§1) The anti-tumor effects of the STING agonistic compounds pertaining to the present invention and combination thereof with anti-neoplastic agents were evaluated on several human acute myeloid leukemia cell lines (KG-1α, THP-1 and CMK) and human B-cell lymphoma cell lines (DOHH2 and OLI-Ly3) below.\nThe cell lines above were suspended in medium (RPMI 1640 containing 10% FBS and 1% Penicillin-Streptomycin), respectively, and seeded into 96-well plates at a density of 2.5 to 5×10^4 cells/well. Immediately after seeding, mediums containing Compound B prepared, respectively, such that the final concentrations after addition to the mediums become 0, 10, 30, 100, 300, and 1000 nmol/L and anti-neoplastic agents prepared such that those become the following final concentrations, respectively, were added to each well and mixed well. As a control, DMSO solution prepared such that the final concentration becomes 0.10% after addition to the medium was added thereto, separately. • Venetoclax (final concentrations: 0, 1, 10, 100, 1000, and 10000 nmol/L, respectively), • Cytarabine (final concentrations: 0, 1, 10, 100, 1000, and 10000 nmol/L, respectively), • Azacitidine (final concentrations: 0, 1, 10, 100, 1000, and 10000 nmol/L, respectively), and • Navitoclax (final concentrations: 0, 50, 500, and 5000 nmol/L, respectively) (the concentration of Compound B in combination with Navitoclax is 1000 nmol/L).\nAfter culturing the cell lines for 48 hours at 37° C. and 5% CO2, 10 μL of Cell Counting Kit-8 (Dojindo) was added to each well, and after incubation for 60 minutes, the absorbance (450 nm) in each well was measured using a microplate reader. FIGS. 13, 14, and 15 show results thereof, respectively. In the figures, the “signal intensity” on the vertical axis represents the absorbance value (450 nm), and the lower the value, the higher the anti-tumor effect."}, "[3]": {"system": "human B-cell lymphoma cell lines (DOHH2 and OLI-Ly3)", "experiment": "Anti-tumor effects in combination with Navitoclax, human B-cell lymphoma cell lines", "details": "combination with Compound B 1000 nmol/L, DOHH2 and OLI-Ly3, 48 hours", "method": "as §1\nThe cell lines above were suspended in medium (RPMI 1640 containing 10% FBS and 1% Penicillin-Streptomycin), respectively, and seeded into 96-well plates at a density of 2.5 to 5×10^4 cells/well. Immediately after seeding, mediums containing Compound B prepared, respectively, such that the final concentrations after addition to the mediums become 0, 10, 30, 100, 300, and 1000 nmol/L and anti-neoplastic agents prepared such that those become the following final concentrations, respectively, were added to each well and mixed well. […]\nAfter culturing the cell lines for 48 hours at 37° C. and 5% CO2, 10 μL of Cell Counting Kit-8 (Dojindo) was added to each well, and after incubation for 60 minutes, the absorbance (450 nm) in each well was measured using a microplate reader. […] In the figures, the “signal intensity” on the vertical axis represents the absorbance value (450 nm), and the lower the value, the higher the anti-tumor effect."}, "[4]": {"system": "human acute myeloid leukemia cell lines", "experiment": "Anti-tumor effect on human acute myeloid leukemia cell lines (Cell Counting Kit-8)", "details": "administration alone, 100 to 1000 nmol/L, 48 hours", "method": "The compound prepared in Example 3 (Compound B) was evaluated for anti-tumor activity against several human acute myeloid leukemia cell lines shown in the table of FIG. 13.\nThe cell lines above were suspended in medium (RPMI 1640 containing 10% FBS and 1% Penicillin-Streptomycin), respectively, and seeded into 96-well plates at a density of 5.0×10^4 cells/well. Immediately after seeding, mediums containing Compound B and Vehicle (0.1% at the final concentration of DMSO solution after addition to the medium), respectively, were added to each well and mixed well. The final concentration of Compound B after addition to the medium was prepared to be 100 to 1000 nmol/L, respectively. After culturing the cell lines for 48 hours at 37° C. and 5% CO2, 10 μL of Cell Counting Kit-8 (Dojindo) was added to each well, and after incubation for 60 minutes, the absorbance (450 nm) in each well was measured using a microplate reader. EC50 value was calculated from the absorbance value using Graphpad prism (Graphpad Software) to evaluate the effect of Compound B on cell proliferation. […] Relative cell count was calculated according to the following formula. Relative minimum cell count represents the minimum value of the above values.\nRelative cell count (%)=(Absorbance (450 nm) in addition of Compound B−blank)/(Absorbance (450 nm) in addition of Vehicle (0.1% DMSO)−blank)×100 [Formula 1]"}}, "data": [{"smiles": "CC(=O)c1cc(-c2ncc(-c3cn[nH]c3)c3onc(N)c23)c(F)cc1N", "note": "[Example 3, 1-(2-amino-5-(3-amino-7-(1H-pyrazol-4-yl)isoxazolo[4,5-c]pyridin-4-yl)-4-fluorophenyl)ethan-1-one]", "values": [{"measurement": "EC50", "setting": "[1]", "result": 40, "unit": "nM"}, {"measurement": "anti-tumor activity of Azacitidine", "setting": "[2]", "result": "enhanced"}, {"measurement": "anti-tumor activity of Cytarabine", "setting": "[2]", "result": "enhanced"}, {"measurement": "anti-tumor activity of Venetoclax", "setting": "[2]", "result": "enhanced"}, {"measurement": "anti-tumor activity of Navitoclax", "setting": "[3]", "result": "enhanced"}, {"measurement": "anti-tumor effect (cell proliferation)", "setting": "[4]", "result": "significant anti-tumor effect"}]}]}
